In assay [1] the test system is colon (HCT116) tumor cell line. The assay is described as follows: Methylene Blue Growth Inhibition Assay, HCT116. The assay is classed as cell-based. To be noted: Homo sapiens, HCT-116, 72 h; Cell Line HCT116, 3 days; read-out: MeB IC50. How it is done:
(§1) Normal Human foreskin fibroblasts (HFF) and human colon (HCT116, RKO), lung (H460), prostate (PC3), and breast tumor (MCF7) cell lines were cultured in high glucose DMEM (Life Technologies) containing 10% fetal bovine serum (FBS) at 37° C. in a humidified 10% CO2, 90% air incubator. Cells were harvested using trypsin/EDTA, counted using a haemocytometer, and plated in 100 μl of the appropriate media, at the following densities, in a 96-well tissue culture plate (Falcon 3075): HFF 5,000 cells/well, HCT116 3,000 cells/well, RKO 2,500 cells/well, H460 2,000 cells/well, PC3 8,000 cells/well, MCF7 4,000 cells/well. The next day, compounds were diluted in DMEM containing 100 μg/ml gentamicin, at twice the final required concentration, from 10 mM stock solutions in DMSO. 100μ/well of these dilutions were added to the 100 μl of media currently on the cell plates. Medium containing 0.6% DMSO was added to control wells. Compounds diluted in DMEM were added to all cell lines. The final concentration of DMSO in all wells was 0.3%. Cells were incubated at 37° C., 10% CO2 for 3 days. Medium was removed by aspiration. Cell biomass was estimated by staining cells with […] per well methylene blue (Sigma M9140, 0.5% in 50:50 ethanol:water), and incubation at room temperature for at least 30 minutes. Stain was removed, and the plates rinsed under a gentle stream of water, and air-dried. To release stain from the cells 100 μl of solubilization solution was added (1% N-lauroyl sarcosine, Sodium salt, Sigma L5125, in PBS), and plates were shaken gently for about 30 minutes. Optical density at 620 nm was measured on a microplate reader. Percent inhibition of cell growth was calculated relative to vehicle treated control wells. Concentration of compound that inhibits 50% of cell growth (IC50) was interpolated using nonlinear regression (Levenberg-Marquardt) and the equation, y=Vmax*(1-(x/(K+x)))+Y2, where “K” was equal to the IC50. In Table 1, +=10−>30 uM; ++=1−10 uM: +++=<1 uM.

For assay [2], the system named is colon (RKO) tumor cell line. As to the kind of experiment: Methylene Blue Growth Inhibition Assay, RKO. The assay is classed as cell-based. To be noted: Homo sapiens, 72 h, 3 days, read-out: MeB IC50. How it is done:
as §1

For assay [3], the system named is breast tumor (MCF7) cell line. The assay is described as follows: Methylene Blue Growth Inhibition Assay, MCF7. The assay is classed as cell-based. To be noted: Homo sapiens, 72 h; Cell Line MCF7, 3 days; read-out: MeB IC50. The procedure:
as §1

Assay [4] concerns Normal Human foreskin fibroblasts (HFF). The assay is described as follows: Methylene Blue Growth Inhibition Assay, HFF. It counts as cell-based. To be noted: 72 h, Cell Line HFF, 3 days, read-out: MeB IC50. How it is done:
as §1

Another assay concerns the target T1, PLK1 kinase domain (Homo sapiens, UniProt P53350).
T1 construct: made in house; host or cells: baculovirus-infected T. ni insect cells
The assay is described as follows: Assay for Inhibition of PLK1 (SPA enzyme activity). The assay is classed as biochemical. To be noted: 2 μM ATP, read-out: Ave pIC50 PLK Enzyme Inhibition (converted). The procedure: All procedures were performed at 4° C. Cells were lysed in so mM HEPES, 200 mM NaCl, so mM imidazole, 5% glycerol; pH 7.5. The homogenate was centrifuged at 14K rpm in a SLA-1500 rotor for 1 hr and the supernatant filtered through a 1.2 micron filter. The supernatant was loaded onto a Nickel chelating Sepharose (Amersham Pharmacia) column and washed with lysis buffer. Protein was eluted using 20%, 30% and 100% buffer B steps where buffer B is 50 mM HEPES, 200 mM NaCl, 300 mM imidazole, 5% glycerol; pH 7.5. Fractions containing PLK were determined by SDS-PAGE. Fractions containing PLK were diluted five-fold with so mM HEPES, 1 mM DTT, 5% glycerol; pH 7.5, then loaded on an SP Sepharose (Amersham Pharmacia) column. After washing the column with so mM HEPES, 1 mM DTT, 5% glycerol; pH 7.5, PLK was step eluted with so mM HEPES, 1 mM DTT, 500 mM NaCl; 5% glycerol; pH 7.5. PLK was concentrated using a 10 kDa molecular weight cutoff membrane and then loaded onto a Superdex 200 gel filtration (Amersham Pharmacia) column equilibrated in 25 mM HEPES, 1 mM DTT, 500 mM NaCl, 5% glycerol; pH 7.5. Fractions containing PLK were determined by SDS-PAGE. PLK was pooled, aliquoted and stored at −80° C. Samples were quality controlled using mass spectrometry, N-terminal sequencing and amino acid analysis.
B. Enzyme activity+/−inhibitors was determined as follows:
Compounds were added to the plate (1 μl in […]). […] Reaction Mix B is prepared as follows at 4° C.: • Reaction Mix B (Enzyme Mix) • 25 mM HEPES, pH 7.2 • 15 mM MgCl2 • 0.15 mg/ml BSA • 2 mM DTT • 2-10 nM PLK1 kinase domain
Reaction Mix A (20 μl) is added per well. Reaction Mix B (20 μl) is added per well. Incubate 1.5 hrs. at RT. The enzymatic reaction is stopped with 175 μl of SPA/EDTA bead mix (29 mM EDTA, 2.5 mg/ml Streptavidin-coated SPA in Standard Dulbecco's PBS (without Mg^2+ and Ca^2+), 60 μM ATP). Plates are sealed spun (after a 1 hr incubation at RT) at 1,000×g for 7 min or settled overnight, then plates counted in Packard TopCount for 30 seconds/well.

Assay [5] concerns prostate (PC3) tumor cell line. As to the kind of experiment: Methylene Blue Growth Inhibition Assay, PC3. It counts as cell-based. To be noted: Homo sapiens, 72 h; Cell Line PC3, 3 days; read-out: MeB IC50. How it is done:
as §1

For assay [6], the system named is lung (H460) tumor cell line. The assay is described as follows: Methylene Blue Growth Inhibition Assay, H460. It counts as cell-based. To be noted: Homo sapiens, NCI-H460, 72 h; Cell Line H460, 3 days; read-out: MeB IC50. The procedure: as §1

T1 sequence (P53350 21-346): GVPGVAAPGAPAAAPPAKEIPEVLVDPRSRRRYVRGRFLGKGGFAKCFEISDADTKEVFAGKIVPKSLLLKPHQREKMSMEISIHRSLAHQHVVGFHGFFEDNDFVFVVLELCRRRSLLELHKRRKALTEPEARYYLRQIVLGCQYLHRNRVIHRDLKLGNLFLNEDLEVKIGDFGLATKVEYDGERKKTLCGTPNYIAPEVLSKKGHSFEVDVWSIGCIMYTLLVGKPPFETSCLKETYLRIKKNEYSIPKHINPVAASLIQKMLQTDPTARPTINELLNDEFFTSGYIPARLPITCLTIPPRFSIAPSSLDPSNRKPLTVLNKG

For `COc1cc2ncn(-c3cc(OCc4ccccc4C(O)CO)c(C(N)=O)s3)c2cc1OC` (stereo not drawn) [Example 109], the IC50 in assay [1] was more than 10 µM; in assay [2] it was more than 10 µM; in assay [3], more than 10 µM; in assay [4], more than 10 µM; on PLK1 kinase domain it was 0.1 to 10 µM; in assay [5], more than 10 µM. For the same compound, the IC50 in assay [6] was more than 10 µM.

Consider `O=C(O)c1sc(-n2cnc3ccc(Cl)cc32)cc1OCc1cccnc1` [Example 72, 5-(6-Chloro-1H-benzimidazol-1-yl)-3-(pyridin-3-ylmethoxy)thiophene-2-carboxylic acid], for which the IC50 in assay [1] is more than 10 µM; in assay [2], more than 10 µM; in assay [3] it was more than 10 µM; in assay [4] it was more than 10 µM; at PLK1 kinase domain it was less than 0.1 µM; in assay [5], more than 10 µM. The IC50 in assay [6] was more than 10 µM.

Turning to `NC(=O)c1sc(-n2cnc3cc4c(cc32)OC(F)(F)O4)cc1OCc1ccccc1C(F)(F)F` [Example 88, 5-(2,2-Difluoro-5H-[1,3]dioxolo[4,5-f]benzimidazol-5-yl)-3-{[2-(trifluoromethyl)benzyl]oxy}thiophene-2-carboxamide], the IC50 is more than 10 µM in assay [1]; more than 10 µM in assay [2]; 1 to 10 µM in assay [3]; more than 10 µM in assay [4]; 0.1 to 10 µM at PLK1 kinase domain; more than 10 µM in assay [5]. Also, the IC50 in assay [6] is more than 10 µM.

Turning to `COc1cc2ncn(-c3cc(OCc4ccccc4[N+](=O)[O-])c(C(N)=O)s3)c2cc1OC` [Example 92, 5-(5,6-Dimethoxy-1H-benzimidazol-1-yl)-3-[(2-nitrobenzyl)oxy]thiophene-2-carboxamide], the IC50 in assay [1] was less than 1 µM; in assay [2], less than 1 µM; in assay [3] it was less than 1 µM; in assay [4], 1 to 10 µM; on PLK1 kinase domain, less than 0.1 µM; in assay [5] it was 1 to 10 µM. In addition, the IC50 in assay [6] is less than 1 µM.

For the compound `CS(=O)(=O)CCNC(=O)c1ccc2c(c1)ncn2-c1cc(OCc2ccccc2C(F)(F)F)c(C(N)=O)s1` [Example 155, 1-(5-(Aminocarbonyl)-4-{[2-(trifluoromethyl)benzyl]oxy}thien-2-yl)-N-[2-(methylsulfonyl)ethyl]-1H-benzimidazole-5-carboxamide], the IC50 in assay [1] is more than 10 µM; in assay [2] it was more than 10 µM; in assay [3], more than 10 µM; in assay [4] it was more than 10 µM; on PLK1 kinase domain it was less than 0.1 µM; in assay [5], more than 10 µM. Also, the IC50 in assay [6] is more than 10 µM.

In the case of `NC(=O)c1sc(-n2c(N)nc3ccccc32)cc1OCc1ccccc1C(F)(F)F` [Example 148, 5-(2-Amino-1H-benzimidazol-1-yl)-3-{[2-(trifluoromethyl)benzyl]oxy}thiophene-2-carboxamide], the IC50 in assay [1] is 1 to 10 µM; in assay [2], 1 to 10 µM; in assay [3], 1 to 10 µM; in assay [4] it was more than 10 µM; on PLK1 kinase domain, 0.1 to 10 µM; in assay [5], more than 10 µM. In assay [6], the IC50 lay in the range of 1 to 10 µM.

Take `Cc1ccccc1COc1cc(-n2cnc3cc(Cl)c(Cl)cc32)sc1C(=O)O` [Example 66, 5-(5,6-Dichloro-1H-benzimidazol-1-yl)-3-[(2-methylbenzyl)oxy]-thiophene-2-carboxylic acid]: the IC50 was more than 10 µM in assay [1]; more than 10 µM in assay [2]; more than 10 µM in assay [3]; more than 10 µM in assay [4]; less than 0.1 µM on PLK1 kinase domain; more than 10 µM in assay [5]. Also, the IC50 in assay [6] is more than 10 µM.

In the case of `NC(=O)c1sc(-n2cnc3ccccc32)cc1CCc1ccccc1` [Example 130, 5-(1H-Benzimidazol-1-yl)-3-(2-phenylethyl)thiophene-2-carboxamide], the IC50 in assay [1] is 1 to 10 µM; in assay [2], 1 to 10 µM; in assay [3], 1 to 10 µM; in assay [4], more than 10 µM; on PLK1 kinase domain, 0.1 to 10 µM; in assay [5], more than 10 µM. Moreover, in assay [6], the IC50 was more than 10 µM.

For the compound `NC(=O)c1sc(-n2cnc3ccc(OCCN4CCCC4)cc32)cc1OCc1ccccc1C(F)(F)F` [Example 139, 5-[6-(2-Pyrrolidin-1-ylethoxy)-1H-benzimidazol-1-yl]-3-{[2-(trifluoromethyl)benzyl]oxy}thiophene-2-carboxamide], the IC50 in assay [1] was 1 to 10 µM; in assay [2] it was less than 1 µM; in assay [3], 1 to 10 µM; in assay [4], more than 10 µM; at PLK1 kinase domain, less than 0.1 µM; in assay [5], 1 to 10 µM. The IC50 in assay [6] lay in the range of 1 to 10 µM.

Take `NC(=O)c1sc(-n2cnc3ccc(OCCN4CCOCC4)cc32)cc1OCc1ccccc1C(F)(F)F` [Example 138, 5-[6-(2-Morpholin-4-ylethoxy)-1H-benzimidazol-1-yl]-3-{[2-(trifluoromethyl)benzyl]oxy}thiophene-2-carboxamide]: the IC50 in assay [1] was 1 to 10 µM; in assay [2], less than 1 µM; in assay [3], 1 to 10 µM; in assay [4], 1 to 10 µM; on PLK1 kinase domain, less than 0.1 µM; in assay [5], more than 10 µM. In assay [6], the IC50 is less than 1 µM.

Turning to `COc1cc2ncn(-c3cc(OCc4cccc(N)c4)c(C(N)=O)s3)c2cc1OC` [Example 96, 3-[(3-Aminobenzyl)oxy]-5-(5,6-dimethoxy-1H-benzimidazol-1-yl)thiophene-2-carboxamide], the IC50 was 1 to 10 µM in assay [1]; 1 to 10 µM in assay [2]; 1 to 10 µM in assay [3]; more than 10 µM in assay [4]; less than 0.1 µM on PLK1 kinase domain; more than 10 µM in assay [5]. For the same compound, the IC50 in assay [6] lay within 1 to 10 µM.

As for `CC(Oc1cc(-n2cnc3cc(N)ccc32)sc1C(N)=O)c1ccccc1Cl` (stereo not drawn) [Example 157, 5-(5-Amino-1H-benzimidazol-1-yl)-3-[1-(2-chlorophenyl)ethoxy]thiophene-2-carboxamide], the IC50 in assay [1] is less than 1 µM; in assay [2], less than 1 µM; in assay [3] it was less than 1 µM; in assay [4], more than 10 µM; at PLK1 kinase domain it was less than 0.1 µM; in assay [5] it was less than 1 µM. Besides, the IC50 in assay [6] was less than 1 µM.

The record behind these values is patent US20080269298A1, “Benzimidazol-1-YL-thiophene compounds for the treatment of cancer” (priority 2002, published 2008).
